# Source: US9708314B2, “Heterocyclic amide compound” (NISSAN CHEMICAL INDUSTRIES, LTD., priority 2013, dated 2017)
# Assays:
# [1] = system: Echinochloa oryzacola Vasing.; assay: Test Example 2: herbicidal activity, application during weed generation in submerged conditions; format: in vivo; conditions: Eighteenth Table; application herbicide amount 320 g/ha
# In short: (§1)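 Scored three weeks post-application on a 0–5 scale (5: ≥90% herbicidal ratio, almost withered; 0: ≤5%). Plants raised from mixed-sown seed in submerged alluvial soil (4 cm water), 25–30 °C greenhouse; water-diluted emulsion applied onto water surface at one- to two-leaf stage, dose in g/ha.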
# Monochoria vaginalis = assay: as above; format: in vivo; conditions: Eighteenth Table; application herbicide amount 320 g/ha
# In short: as §1
# Scirpus juncoides = assay: as above; format: in vivo; conditions: Eighteenth Table; application herbicide amount 320 g/ha
# In short: as §1
melting point,Structure (SMILES),A (Echinochloa oryzicola Vasing.) herbicidal ratio grade [1],C (Monochoria vaginalis) herbicidal ratio grade (Monochoria vaginalis),B (Scirpus juncoides) herbicidal ratio grade (Scirpus juncoides)
198 to 200 °C,"CC(C)c1nnc2c(C(=S)Nc3nnnn3C)ccc(C(F)(F)F)n12 [2-039, 3-Isopropyl-N-(1-methyl-1H-tetrazol-5-yl)-5-(trifluoromethyl)-[1,2,4]triazolo[4,3-a]pyridine-8-carbothioamide]",5 (Herbicidal ratio of 90% or more (almost completely withered)),5 (Herbicidal ratio of 90% or more (almost completely withered)),5 (Herbicidal ratio of 90% or more (almost completely withered))
,Cn1nnnc1NC(=O)c1ccc(C(F)(F)F)n2c(SCC3CC3)nnc12 [2-084],4 (Herbicidal ratio of 70% or more and less than 90%),3 (Herbicidal ratio of 40% or more and less than 70%),4 (Herbicidal ratio of 70% or more and less than 90%)
,Cn1nnnc1NC(=O)c1ccc(C(F)(F)F)n2c(SCC3CCCO3)nnc12 (stereo not shown) [2-085],4 (Herbicidal ratio of 70% or more and less than 90%),3 (Herbicidal ratio of 40% or more and less than 70%),4 (Herbicidal ratio of 70% or more and less than 90%)
,Cn1nnnc1NC(=O)c1ccc(C(F)(F)F)n2c(SCC#N)nnc12 [2-086],0 (Herbicidal ratio of 5% or less (almost no effect)),1 (Herbicidal ratio of 5% or more and less than 20%),2 (Herbicidal ratio of 20% or more and less than 40%)
,Cn1nnnc1NC(=O)c1ccc(C(F)(F)F)n2c(SCC(F)(F)F)nnc12 [2-087],4 (Herbicidal ratio of 70% or more and less than 90%),3 (Herbicidal ratio of 40% or more and less than 70%),4 (Herbicidal ratio of 70% or more and less than 90%)
,CCN(CC)c1nnc2c(C(=O)Nc3nnnn3C)ccc(C(F)(F)F)n12 [2-089],4 (Herbicidal ratio of 70% or more and less than 90%),5 (Herbicidal ratio of 90% or more (almost completely withered)),4 (Herbicidal ratio of 70% or more and less than 90%)
,CCCn1nnnc1NC(=O)c1ccc(C(F)(F)F)n2c(C(C)C)nnc12 [2-090],5 (Herbicidal ratio of 90% or more (almost completely withered)),4 (Herbicidal ratio of 70% or more and less than 90%),5 (Herbicidal ratio of 90% or more (almost completely withered))
,C=CCn1nnnc1NC(=O)c1ccc(C(F)(F)F)n2c(C(C)C)nnc12 [2-091],4 (Herbicidal ratio of 70% or more and less than 90%),4 (Herbicidal ratio of 70% or more and less than 90%),5 (Herbicidal ratio of 90% or more (almost completely withered))
,CC(C)c1nnc2c(C(=O)Nc3nnnn3Cc3ccc(Cl)cc3)ccc(C(F)(F)F)n12 [2-093],2 (Herbicidal ratio of 20% or more and less than 40%),3 (Herbicidal ratio of 40% or more and less than 70%),4 (Herbicidal ratio of 70% or more and less than 90%)
,C#CCN(C)c1nnc2c(C(=O)Nc3nnnn3C)ccc(C(F)(F)F)n12 [2-094],5 (Herbicidal ratio of 90% or more (almost completely withered)),4 (Herbicidal ratio of 70% or more and less than 90%),5 (Herbicidal ratio of 90% or more (almost completely withered))
,CN(CCC#N)c1nnc2c(C(=O)Nc3nnnn3C)ccc(C(F)(F)F)n12 [2-095],4 (Herbicidal ratio of 70% or more and less than 90%),5 (Herbicidal ratio of 90% or more (almost completely withered)),5 (Herbicidal ratio of 90% or more (almost completely withered))
,COc1ccc(N(C)c2nnc3c(C(=O)Nc4nnnn4C)ccc(C(F)(F)F)n23)cc1 [2-099],5 (Herbicidal ratio of 90% or more (almost completely withered)),4 (Herbicidal ratio of 70% or more and less than 90%),5 (Herbicidal ratio of 90% or more (almost completely withered))
,C=CCN(C)c1nnc2c(C(=O)Nc3nnnn3C)ccc(C(F)(F)F)n12 [2-100],4 (Herbicidal ratio of 70% or more and less than 90%),4 (Herbicidal ratio of 70% or more and less than 90%),3 (Herbicidal ratio of 40% or more and less than 70%)
,COCCSc1nnc2c(C(=O)Nc3nnnn3C)ccc(C(F)(F)F)n12 [2-101],4 (Herbicidal ratio of 70% or more and less than 90%),5 (Herbicidal ratio of 90% or more (almost completely withered)),4 (Herbicidal ratio of 70% or more and less than 90%)
,C=CCSc1nnc2c(C(=O)Nc3nnnn3C)ccc(C(F)(F)F)n12 [2-102],4 (Herbicidal ratio of 70% or more and less than 90%),4 (Herbicidal ratio of 70% or more and less than 90%),4 (Herbicidal ratio of 70% or more and less than 90%)
,C#CCSc1nnc2c(C(=O)Nc3nnnn3C)ccc(C(F)(F)F)n12 [2-103],4 (Herbicidal ratio of 70% or more and less than 90%),4 (Herbicidal ratio of 70% or more and less than 90%),3 (Herbicidal ratio of 40% or more and less than 70%)
,CC#Cc1nnc2c(C(=O)Nc3nnnn3C)ccc(C(F)(F)F)n12 [2-106],1 (Herbicidal ratio of 5% or more and less than 20%),3 (Herbicidal ratio of 40% or more and less than 70%),2 (Herbicidal ratio of 20% or more and less than 40%)
,CC(=O)OCc1nnc2c(C(=O)Nc3nnnn3C)ccc(C(F)(F)F)n12 [2-107],2 (Herbicidal ratio of 20% or more and less than 40%),2 (Herbicidal ratio of 20% or more and less than 40%),1 (Herbicidal ratio of 5% or more and less than 20%)
,Cn1nnnc1NC(=O)c1ccc(C(F)(F)F)n2c(C3(C)CC3(Cl)Cl)nnc12 (stereo not shown) [2-110],5 (Herbicidal ratio of 90% or more (almost completely withered)),4 (Herbicidal ratio of 70% or more and less than 90%),5 (Herbicidal ratio of 90% or more (almost completely withered))
,Cn1nnnc1NC(=O)c1ccc(C(F)(F)F)n2c(=O)n(C)nc12 [6-002],3 (Herbicidal ratio of 40% or more and less than 70%),3 (Herbicidal ratio of 40% or more and less than 70%),2 (Herbicidal ratio of 20% or more and less than 40%)
,CCn1nc2c(C(=O)Nc3nnnn3C)ccc(C(F)(F)F)n2c1=O [6-004],3 (Herbicidal ratio of 40% or more and less than 70%),2 (Herbicidal ratio of 20% or more and less than 40%),0 (Herbicidal ratio of 5% or less (almost no effect))
,CC(C)c1nc2c(C(=O)Nc3nnnn3C)ccc(C(F)(F)F)n2n1 [7-002],4 (Herbicidal ratio of 70% or more and less than 90%),2 (Herbicidal ratio of 20% or more and less than 40%),2 (Herbicidal ratio of 20% or more and less than 40%)
